Test results taken from the supplement of paper PMC10307832.

Legend:
Test in all cases: relative viability (nuclei count vs DMSO), 5 days (fraction); higher = more cells survive
[1] = compound: CC(C)(C)c1nc(-c2cccc(NS(=O)(=O)c3c(F)cccc3F)c2F)c(-c2ccnc(N)n2)s1 [Dabrafenib] + CC1(C)CCC(c2ccc(Cl)cc2)=C(CN2CCN(c3ccc(C(=O)NS(=O)(=O)c4ccc(N[C@H](CCN5CCOCC5)CSc5ccccc5)c(S(=O)(=O)C(F)(F)F)c4)cc3)CC2)C1 [Navitoclax] (partner 0.5 µM)
Procedure, shortened: (§1)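 For relative viability, nuclei counts in treated wells were divided by those in vehicle wells. Lung cancer cell lines had been pin-tool dosed in 1536-well plates the day after seeding and cultured for 5 days, then fixed and stained in one step (final 0.05% Triton X-100, 1% formaldehyde, 1 ug/ml Hoechst) and imaged at 4×. Doses were one drug alone or a fixed anchor-drug dose plus five library-drug doses (not always all listed) in √10 steps, and values are duplicate-plate medians.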

[2] = compound: NC(=O)c1ccc(N(C(N)=O)c2c(F)cccc2F)nc1-c1ccc(F)cc1F [VX-702] + Cc1nc(NC(=O)N2CCC[C@H]2C(N)=O)sc1-c1ccnc(C(C)(C)C(F)(F)F)c1 [Alpelisib] (partner 2 µM)
Procedure, shortened: as §1

[3] = compound: CC(C)(C)c1nc(-c2cccc(NS(=O)(=O)c3c(F)cccc3F)c2F)c(-c2ccnc(N)n2)s1 [Dabrafenib] + N=C(N)NC(=N)NCCc1ccccc1 [Phenformin] (partner 250 µM)
Procedure, shortened: as §1

[4] = compound: NC(=O)c1ccc(N(C(N)=O)c2c(F)cccc2F)nc1-c1ccc(F)cc1F [VX-702] + CCNC(=O)c1noc(-c2cc(C(C)C)c(O)cc2O)c1-c1ccc(CN2CCOCC2)cc1 [Luminespib] (partner 0.01 µM)
Procedure, shortened: as §1

Cell Line	relative viability ([1]; first compound 0.003 µM)	relative viability ([1]; first compound 0.009487 µM)	relative viability ([1]; first compound 0.03 µM)	relative viability ([1]; first compound 0.09487 µM)	relative viability ([1]; first compound 0.3 µM)	relative viability ([2]; first compound 0.02 µM)	relative viability ([2]; first compound 0.2 µM)	relative viability ([2]; first compound 0.6325 µM)	relative viability ([2]; first compound 2 µM)	relative viability ([3]; first compound 0.003 µM)	relative viability ([3]; first compound 0.009487 µM)	relative viability ([3]; first compound 0.03 µM)	relative viability ([3]; first compound 0.09487 µM)	relative viability ([3]; first compound 0.3 µM)	relative viability ([4]; first compound 0.02 µM)	relative viability ([4]; first compound 0.2 µM)	relative viability ([4]; first compound 0.6325 µM)	relative viability ([4]; first compound 2 µM)
NCI-H460	1.17	1.14	1.26	0.998	1.06	0.465	0.46	0.448	0.487	0.523	0.533	0.52	0.497	0.46	0.0333	0.0359	0.0358	0.0313
NCI-H520	1.3	1.11	0.985	1.07	0.936	0.919	0.788	0.796	1.06	0.431	0.638	0.289	0.442	0.612	0.189	0.245	0.221	0.239
NCI-H596	0.733	0.996	0.764	1	0.921	0.437	0.436	0.509	0.426	–	1.11	0.65	0.687	0.748	1.05	1.1	1.01	1.11
NCI-H647	–	1.07	–	1.08	1.11	1.29	1	1.08	1.14	0.129	0.521	0.418	0.486	0.458	0.216	0.478	0.143	0.17
NCI-H727	–	0.608	0.543	0.545	0.825	0.504	0.552	0.621	0.634	–	0.425	0.515	–	0.595	0.306	0.345	0.296	0.294
NCI-H838	1.22	1.29	1.13	1.11	1.28	0.965	0.893	0.95	1.23	0.564	0.648	0.451	0.566	0.625	0.332	0.333	0.273	0.299
NCI-H1355	–	1.01	0.894	–	1.07	0.778	0.807	0.799	0.876	–	0.487	0.414	0.4	0.459	0.72	0.632	0.729	0.76
NCI-H1395	–	1.18	1.09	1.01	0.902	1.2	1.11	0.967	1.38	0.325	0.462	0.447	0.403	0.437	0.634	0.592	0.892	0.712
NCI-H1437	1.14	1.02	1.14	1.07	1.1	0.943	0.858	0.911	1.14	0.2	0.3	0.259	0.3	0.4	1.17	1.14	1.14	1.4
NCI-H1651	1.15	1.03	0.997	1.01	1.03	0.928	0.948	0.882	1.16	0.35	0.352	0.293	0.353	0.347	0.979	0.891	0.921	1.08
NCI-H1666	0.929	–	1.1	0.863	0.998	1	0.862	0.88	0.909	0.483	0.554	0.576	0.583	0.68	0.954	–	1.07	1.01
NCI-H1734	–	0.835	0.703	0.766	0.85	0.626	0.596	0.588	0.559	–	0.302	0.388	0.389	0.362	0.225	0.228	0.173	0.203
NCI-H1755	0.949	0.938	0.75	0.964	0.997	0.907	0.891	0.925	1.01	0.565	0.627	0.544	0.591	0.629	0.432	0.498	0.315	0.476
NCI-H1792	–	0.61	0.608	0.568	0.557	0.668	0.66	0.637	0.479	–	0.485	0.198	0.34	0.202	0.331	0.355	0.376	0.523
NCI-H1793	0.463	0.599	0.306	0.445	0.669	0.822	0.583	0.545	0.959	–	0.398	–	–	0.39	0.165	0.217	0.213	0.192
NCI-H1915	0.777	0.768	0.733	0.732	0.746	1.04	1.05	1.1	1.15	0.392	0.402	0.266	0.29	0.272	0.84	0.739	0.765	0.916
NCI-H1944	0.954	1.03	0.971	0.968	0.899	0.76	0.775	0.818	0.605	0.182	0.199	0.188	0.222	0.208	0.73	0.713	0.771	0.718
NCI-H1975	1.2	1.11	0.954	1	1.18	0.738	0.664	0.716	0.869	0.227	0.411	0.411	0.356	0.363	0.198	0.275	0.233	0.246

Cell Line	relative viability ([1]; first compound 0.003 µM)	relative viability ([1]; first compound 0.009487 µM)	relative viability ([1]; first compound 0.03 µM)	relative viability ([1]; first compound 0.09487 µM)	relative viability ([1]; first compound 0.3 µM)	relative viability ([2]; first compound 0.02 µM)	relative viability ([2]; first compound 0.2 µM)	relative viability ([2]; first compound 0.6325 µM)	relative viability ([2]; first compound 2 µM)	relative viability ([3]; first compound 0.003 µM)	relative viability ([3]; first compound 0.009487 µM)	relative viability ([3]; first compound 0.03 µM)	relative viability ([3]; first compound 0.09487 µM)	relative viability ([3]; first compound 0.3 µM)	relative viability ([4]; first compound 0.02 µM)	relative viability ([4]; first compound 0.2 µM)	relative viability ([4]; first compound 0.6325 µM)	relative viability ([4]; first compound 2 µM)
NCI-H1993	0.834	1.04	0.902	1.08	1.17	0.665	0.74	0.628	0.674	0.33	0.536	0.482	0.446	0.513	0.645	0.741	0.777	0.818
NCI-H2009	1.11	1.02	1.06	0.909	0.841	1.21	1.22	1.24	1.35	0.412	0.426	0.341	0.312	0.268	1.13	1.07	1.19	1.3
NCI-H2023	1.06	1.03	0.995	0.915	1.05	0.55	0.606	0.483	0.561	0.4	0.406	0.419	0.423	0.443	0.692	0.829	0.826	0.974
NCI-H2085	1.15	1.14	1.16	1.1	1.09	1.08	0.838	0.959	0.955	0.482	0.809	0.592	0.596	0.714	0.479	0.462	0.477	0.41
NCI-H2087	0.947	0.881	0.893	0.842	0.892	1.2	1.04	1.04	1.19	–	0.527	0.597	0.395	0.391	0.162	0.141	0.169	0.138
NCI-H2126	0.779	0.887	0.823	0.866	0.956	0.708	0.708	0.718	0.698	0.521	0.551	0.557	0.601	0.565	0.879	0.918	0.834	0.918
NCI-H2170	0.702	0.704	0.463	0.641	0.594	0.801	0.61	0.757	0.869	0.4	0.367	0.385	0.384	0.421	0.413	0.638	0.52	0.804
NCI-H2228	0.543	0.953	0.693	0.854	0.757	0.826	0.64	0.753	0.856	–	0.326	0.289	0.37	0.258	0.101	0.144	0.145	0.124
NCI-H2347	0.536	0.92	0.733	0.766	0.752	1.01	1.12	1.05	1.14	–	0.461	0.229	0.382	0.352	0.446	–	0.909	0.552
NCI-H2405	–	0.697	–	0.734	0.73	0.672	0.766	0.774	0.949	–	0.286	–	0.37	0.371	0.659	0.641	0.799	0.73
NCI-H3122	1.04	1.01	1.06	0.991	1.08	0.822	0.735	0.676	0.859	0.32	0.349	0.39	0.369	0.37	0.0998	0.0746	0.0992	0.0951
PC-3 [JPC-3]	0.85	0.829	0.822	0.781	0.788	1.02	1.06	1.07	1.02	0.405	0.491	0.465	0.441	0.476	0.636	0.695	0.686	0.668
PC-14	1.01	0.977	1.05	1.01	1.06	1.05	0.912	0.927	1.01	–	0.493	0.623	0.583	0.83	0.138	0.171	0.158	0.175
RERF-LC-KJ	1.21	1.21	0.902	–	1.15	0.969	0.69	0.8	0.794	0.432	0.435	0.43	0.447	0.546	1.19	1.2	1.12	1.67
SK-LU-1	0.557	0.789	0.806	0.709	0.567	1.08	0.972	1.04	1.34	–	0.571	0.326	0.47	0.373	0.211	0.177	0.2	0.207
SK-MES-1	1.22	1.22	1.2	1.04	1.17	0.739	0.822	0.853	0.918	0.582	0.757	0.665	0.543	0.508	0.839	0.711	0.673	0.822
SW 1573	1.13	1.04	0.998	0.755	1.06	0.789	0.64	0.759	0.652	0.371	0.445	0.324	0.465	0.541	0.215	0.138	0.261	0.232
UMC-11	0.295	0.369	0.315	0.356	0.332	0.954	0.973	0.955	1.29	0.289	0.331	0.332	0.329	0.279	0.993	0.865	0.805	1.11
